For data set [1], the system named is Long-Evans derived rats. The experiment in a line: Spontaneous locomotor activity study. The data set is classed as in vivo, rat. The following applies: mean ± SEM. As to the method:
The effects on locomotor activity were studied in Long-Evans derived rats following protocol outlined in Dews P., Br. J. Pharmacol., 8: 46 (1953).
This effect was still evident 2 hours following drug administration. On the basis of these studies, CNS effects and long duration of action may be anticipated at sufficient clinical doses.

Data set [2] addresses 5-HT2C (Homo sapiens, UniProt P28335). The experiment in a line: In vitro radioligand binding assay, 5-HT2C.
In data set [3] the test system is Long-Evans derived rats. Description: Porsolt forced swim test. The data set is classed as in vivo, rat. The following applies: for Mean Immobility Time (% of Total) ± SEM, Day 2 Study: 3 administrations. As to the method:
Performance in the Porsolt forced swim test was evaluated for sertraline and Compound P following protocols outlined in Porsolt R. D., et al., Arch. Int. Pharmacodyn., 229: 327 ([…]).
The Porsolt forced swim test is a model of “behavioral despair”, which has been used as an in vivo model for assessing potential antidepressant-like activity. Both test articles were dissolved in physiological saline (vehicle) and administered intraperitoneally. […] Long-Evans derived rats were used.

In data set [4] the target is T1, 5-HT1A (Homo sapiens, UniProt P08908).
T1 sequence (P08908 1-422): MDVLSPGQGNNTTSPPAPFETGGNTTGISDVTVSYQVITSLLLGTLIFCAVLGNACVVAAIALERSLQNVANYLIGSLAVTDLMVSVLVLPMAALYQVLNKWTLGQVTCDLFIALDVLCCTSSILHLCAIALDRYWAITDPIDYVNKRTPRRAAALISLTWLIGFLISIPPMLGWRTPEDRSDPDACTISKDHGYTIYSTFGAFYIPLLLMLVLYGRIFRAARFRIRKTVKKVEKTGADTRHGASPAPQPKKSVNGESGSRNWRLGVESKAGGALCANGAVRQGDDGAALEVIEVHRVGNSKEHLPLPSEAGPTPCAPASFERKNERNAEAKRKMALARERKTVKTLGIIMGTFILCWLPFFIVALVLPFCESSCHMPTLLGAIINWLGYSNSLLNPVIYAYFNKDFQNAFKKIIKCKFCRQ
The experiment in a line: In vitro radioligand binding assay, 5-HT1A.

Data set [5] has as its target T2, M5 (Homo sapiens, UniProt P08912).
T2 sequence (P08912 1-532): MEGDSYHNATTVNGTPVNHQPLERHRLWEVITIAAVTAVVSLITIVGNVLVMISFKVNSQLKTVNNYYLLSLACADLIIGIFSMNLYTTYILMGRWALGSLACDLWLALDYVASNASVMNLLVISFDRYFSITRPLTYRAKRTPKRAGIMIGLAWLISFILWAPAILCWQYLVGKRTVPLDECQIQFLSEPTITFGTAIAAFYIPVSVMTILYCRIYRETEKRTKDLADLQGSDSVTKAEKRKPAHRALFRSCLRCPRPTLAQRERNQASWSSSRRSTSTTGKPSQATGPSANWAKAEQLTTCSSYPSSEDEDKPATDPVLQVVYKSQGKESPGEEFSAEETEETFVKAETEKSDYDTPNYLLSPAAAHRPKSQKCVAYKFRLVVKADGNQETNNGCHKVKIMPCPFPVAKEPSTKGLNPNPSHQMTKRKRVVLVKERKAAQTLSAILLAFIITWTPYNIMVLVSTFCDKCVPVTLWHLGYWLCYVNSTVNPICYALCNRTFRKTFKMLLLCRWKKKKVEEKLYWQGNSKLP
Description: In vitro radioligand binding assay, M5. The following applies: read-out: Ki, M5.

Data set [6] relates to Beagle dogs. Description: Cardiovascular safety study in conscious telemetered dogs. Type of data set: in vivo. The following applies: single oral doses 0.5, 1.5 and 5 mg/kg. As to the method:
There were four animals/compound and each animal within the treatment group was exposed to the three doses (plus a empty capsule control), in a dose ramp-up manner with a minimum of 72 hours between doses.

Data set [7] addresses M2 (Homo sapiens, UniProt P08172). The experiment in a line: In vitro radioligand binding assay, M2.
Data set [8] has as its target 5-HT1B (Homo sapiens, UniProt P28222). The experiment in a line: In vitro radioligand binding assay, 5-HT1B.
For data set [9], the target named is hERG channel (Homo sapiens, UniProt Q12809). Description: hERG channel current in stably transfected HEK293 cells. As to the method:
Studies were conducted to determine effects on IKr, the rapidly activating delayed rectifier cardiac potassium current in the human heart. […] In this assay system, HERG channel current serves as a surrogate for IKr.
Background: Block of hERG is tested as a sign of cardiac risk.

Data set [10] addresses D1 (Homo sapiens, UniProt P21728). Description: In vitro radioligand binding assay, D1.

5-HT1B, sequence (P28222 whole entry, species assumed): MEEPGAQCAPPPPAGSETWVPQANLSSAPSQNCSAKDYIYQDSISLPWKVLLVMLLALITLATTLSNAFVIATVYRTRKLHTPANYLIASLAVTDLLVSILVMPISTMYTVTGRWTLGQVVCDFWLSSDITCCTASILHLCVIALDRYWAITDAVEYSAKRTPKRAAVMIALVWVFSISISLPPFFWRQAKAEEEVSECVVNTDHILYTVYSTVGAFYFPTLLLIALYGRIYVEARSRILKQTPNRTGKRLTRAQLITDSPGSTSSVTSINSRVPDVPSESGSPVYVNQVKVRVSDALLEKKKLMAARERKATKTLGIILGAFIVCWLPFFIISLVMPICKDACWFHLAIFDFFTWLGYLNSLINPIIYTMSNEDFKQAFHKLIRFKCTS
D1, sequence (P21728 whole entry): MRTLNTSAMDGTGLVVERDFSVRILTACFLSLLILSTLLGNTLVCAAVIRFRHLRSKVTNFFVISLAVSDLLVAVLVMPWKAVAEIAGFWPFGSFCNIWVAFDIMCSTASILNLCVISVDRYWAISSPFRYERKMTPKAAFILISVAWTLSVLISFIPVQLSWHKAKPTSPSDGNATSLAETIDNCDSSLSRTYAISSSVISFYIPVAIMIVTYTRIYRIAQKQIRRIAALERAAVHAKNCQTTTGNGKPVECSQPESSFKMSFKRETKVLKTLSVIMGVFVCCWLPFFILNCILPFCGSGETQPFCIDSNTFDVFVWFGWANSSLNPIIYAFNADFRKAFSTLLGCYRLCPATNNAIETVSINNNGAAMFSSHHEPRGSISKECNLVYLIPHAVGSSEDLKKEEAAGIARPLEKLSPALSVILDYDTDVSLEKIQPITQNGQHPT
5-HT2C, sequence (P28335 33-458, species assumed): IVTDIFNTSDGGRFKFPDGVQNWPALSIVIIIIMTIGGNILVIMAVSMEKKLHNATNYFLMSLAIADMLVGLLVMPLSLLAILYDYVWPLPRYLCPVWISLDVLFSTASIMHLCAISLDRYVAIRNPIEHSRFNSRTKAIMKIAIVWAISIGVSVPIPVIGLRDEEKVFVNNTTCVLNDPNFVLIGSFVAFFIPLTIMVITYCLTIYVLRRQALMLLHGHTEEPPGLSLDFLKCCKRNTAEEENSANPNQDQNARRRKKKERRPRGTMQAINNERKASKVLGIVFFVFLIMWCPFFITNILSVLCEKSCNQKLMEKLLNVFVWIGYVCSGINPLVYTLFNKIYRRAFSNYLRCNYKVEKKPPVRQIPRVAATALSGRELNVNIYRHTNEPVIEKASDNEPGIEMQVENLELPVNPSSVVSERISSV
hERG channel, sequence (Q12809 whole entry): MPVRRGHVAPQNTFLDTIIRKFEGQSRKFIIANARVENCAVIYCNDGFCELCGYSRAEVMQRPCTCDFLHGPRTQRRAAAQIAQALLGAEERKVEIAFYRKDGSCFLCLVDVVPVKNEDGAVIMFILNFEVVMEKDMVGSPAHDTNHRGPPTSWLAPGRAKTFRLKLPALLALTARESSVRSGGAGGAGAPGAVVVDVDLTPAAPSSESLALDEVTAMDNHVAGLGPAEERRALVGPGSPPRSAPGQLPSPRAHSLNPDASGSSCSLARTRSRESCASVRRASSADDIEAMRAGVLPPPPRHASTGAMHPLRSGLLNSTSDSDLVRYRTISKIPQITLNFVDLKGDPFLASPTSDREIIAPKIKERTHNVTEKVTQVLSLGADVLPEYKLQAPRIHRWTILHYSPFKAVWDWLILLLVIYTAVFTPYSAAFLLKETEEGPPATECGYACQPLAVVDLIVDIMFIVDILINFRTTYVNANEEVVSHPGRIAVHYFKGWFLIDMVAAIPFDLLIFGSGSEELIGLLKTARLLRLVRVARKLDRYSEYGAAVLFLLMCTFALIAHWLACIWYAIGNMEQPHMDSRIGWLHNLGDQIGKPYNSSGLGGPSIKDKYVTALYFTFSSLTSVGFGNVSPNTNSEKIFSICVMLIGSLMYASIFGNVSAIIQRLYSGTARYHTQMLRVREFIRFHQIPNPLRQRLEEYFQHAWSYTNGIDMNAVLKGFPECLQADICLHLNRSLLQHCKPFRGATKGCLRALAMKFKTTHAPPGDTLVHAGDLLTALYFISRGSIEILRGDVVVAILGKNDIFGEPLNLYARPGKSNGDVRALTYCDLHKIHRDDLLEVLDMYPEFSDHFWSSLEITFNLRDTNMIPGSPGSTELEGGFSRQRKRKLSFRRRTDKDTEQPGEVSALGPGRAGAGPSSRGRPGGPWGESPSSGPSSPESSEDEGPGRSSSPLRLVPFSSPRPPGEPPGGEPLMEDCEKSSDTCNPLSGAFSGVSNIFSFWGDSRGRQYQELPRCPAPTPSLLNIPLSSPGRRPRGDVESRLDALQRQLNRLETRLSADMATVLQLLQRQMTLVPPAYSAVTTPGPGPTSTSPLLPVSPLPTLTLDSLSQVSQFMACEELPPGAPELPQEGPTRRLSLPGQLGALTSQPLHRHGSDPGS
M2, sequence (P08172 whole entry): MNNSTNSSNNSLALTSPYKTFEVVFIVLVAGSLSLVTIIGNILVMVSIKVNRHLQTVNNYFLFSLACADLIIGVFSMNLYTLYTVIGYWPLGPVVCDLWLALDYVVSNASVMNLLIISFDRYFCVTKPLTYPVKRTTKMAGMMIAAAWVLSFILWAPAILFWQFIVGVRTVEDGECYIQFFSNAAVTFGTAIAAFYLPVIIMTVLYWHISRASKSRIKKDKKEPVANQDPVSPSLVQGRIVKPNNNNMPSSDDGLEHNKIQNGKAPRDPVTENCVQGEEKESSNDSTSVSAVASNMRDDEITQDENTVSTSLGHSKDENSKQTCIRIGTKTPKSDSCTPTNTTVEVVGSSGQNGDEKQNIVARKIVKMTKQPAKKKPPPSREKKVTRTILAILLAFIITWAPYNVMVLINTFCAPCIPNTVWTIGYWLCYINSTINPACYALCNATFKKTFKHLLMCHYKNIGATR

As to `CN[C@H]1CC[C@@H](c2ccc(Cl)c(Cl)c2)c2ccccc21` [Sertraline, (1S,4S)-cis 4-(3,4-dichlorophenyl)-1,2,3,4-tetrahydro-N-methyl-1-napthalenamine, reference compound], the results for the “Total Activity Counts, 71–80 Minutes” value in [1] (2.5 mg/kg single i.p. dose) and in [1] (5.0 mg/kg single i.p. dose) were 34 ± 9 and 32 ± 11, respectively. The “Total Activity Counts, 91–100 Minutes” value is recorded as 25 ± 9 in [1] (2.5 mg/kg single i.p. dose) and 14 ± 9 in data set [1] (5.0 mg/kg single i.p. dose). The “Total Activity Counts, 111–120 Minutes” value in data set [1] (2.5 mg/kg single i.p. dose) was found to be 30 ± 10; in data set [1] (5.0 mg/kg single i.p. dose) it was 16 ± 11. For the same compound, the “Total Activity Counts, Total 1st Hour” value in data set [1] (2.5 mg/kg single i.p. dose) was 559 ± 57^2; in [1] (5.0 mg/kg single i.p. dose), 327 ± 55. In addition, the results for the “Total Activity Counts, Total 2nd Hour” value in [1] (2.5 mg/kg single i.p. dose) and in data set [1] (5.0 mg/kg single i.p. dose) were 211 ± 60 and 95 ± 41, respectively. The inhibition constant (Ki) (usually the dissociation constant of the complex between target and ligand, obtained from inhibition or displacement) in data set [2] worked out at 5600 nM; in [4] it was 2400 nM; in [5] it was 2000 nM; in data set [7] it was 3700 nM; in data set [8], 8500 nM; in data set [10], 1600 nM. The “Mean Immobility Time (% of Total) ± SEM, Day 2 Study” value in data set [3] (2.5 mg/kg i.p.) is reported as 86 ± 3 % of Total; in [3] (5.0 mg/kg i.p.) it was 77 ± 2 % of Total; in [3] (10.0 mg/kg i.p.) it was 72 ± 3 % of Total. Also, the “Mean Immobility Time (% of Total) ± SEM, Day 4 Study” value in data set [3] (2.5 mg/kg i.p., 7 administrations) is 78 ± 3 % of Total; in data set [3] (5.0 mg/kg i.p., 7 administrations) it was 64 ± 2 % of Total. For the same compound, the “Mean Immobility Time (% of Total), Day 4 Study” value in data set [3] (10.0 mg/kg i.p., 7 administrations, error is std dev (N = 2)) is 70 ± 4 % of Total. For the same compound, the “effect on heart rate, blood pressure or ECG parameters (including QTc)” value in data set [6] was “no effect”. Besides, the 50% inhibitory concentration (IC50) (usually the point on the concentration scale where inhibition reaches its midpoint) in data set [9] turned out to be 1100 nM.

For the origin of these results see patent publication US20070282007A1, “TREATMENT OF PAIN DISORDERS WITH trans 4-(3,4-DICHLOROPHENYL)-1,2,3,4-TETRAHYDRO-1-NAPHTHALENAMINE AND ITS FORMAMIDE” (SEPRACOR INC., priority 2006, published 2007).
